Measured values taken from patent US8030335B2, “Use of liver X receptor agonists” (Laboratoires Fournier S.A., priority 2005, dated 2011).

Experiments:
Assay type in all cases: in vivo, rat
[1] = system: isolated pancreatic islets; assay: Glucose-stimulated insulin secretion in pancreatic islets isolated from treated ZDF rats; settings: islets of ZDF rats treated 10 mg/kg oral for 3 weeks
Description: Male ZDF fa/fa and ZDF fa+ rats were obtained from Genetic Models (Indianapolis, Ind.), at the age of 6 weeks and used in the experiments at 12 weeks of age, after 3 weeks of oral treatment with vehicle or GW3965 (10 mg/kg). Compounds were given once daily (at 17 h) via oral gavage. At the time of their use, the ZDF fa/fa rats weighed 310-350 g, whereas the age-matched ZDF fa+ rats weighed 245-285 g. ZDF fa+ and ZDF fa/fa animals had free access to diabetogenic chow (Purina 5008). Animals were housed 5 per cage in a temperature and humidity-controlled room with a 12/12-h light-dark cycle. Blood samples were taken 16 h after compound administration via the tail vein and measured on a Konelab 300 (Labsystem) clinical chemistry analyzer. Rat pancreatic islets were prepared by collagenase digestion and density gradient purification. The enzyme collagenase type XI (Sigma Chemical, St. Louis, Mo.) was used for digestion of the pancreas. After an overnight fast, animals were deeply anesthetized and killed. Then, the pancreatic duct was cannulated, and 20 ml of the digestion solution at 37° C. […] Insulin content was measured in the same islets after an overnight alcohol-acid extraction (Ethanol 75%+HCl 0.15 N). Insulin concentrations in the different media were determined by rat insulin ELISA test (Insulin Rat Elite plus, MERCODIA).

[2] = system: pancreatic islets; assay: Number of harvested pancreatic islets in treated ZDF rats; settings: 10 mg/kg oral for 3 weeks, vehicle 51±13, fa+ 120±28, mean±SEM
Description: Male ZDF fa/fa and ZDF fa+ rats were obtained from Genetic Models (Indianapolis, Ind.), at the age of 6 weeks and used in the experiments at 12 weeks of age, after 3 weeks of oral treatment with vehicle or GW3965 (10 mg/kg). Compounds were given once daily (at 17 h) via oral gavage. At the time of their use, the ZDF fa/fa rats weighed 310-350 g, whereas the age-matched ZDF fa+ rats weighed 245-285 g. ZDF fa+ and ZDF fa/fa animals had free access to diabetogenic chow (Purina 5008). Animals were housed 5 per cage in a temperature and humidity-controlled room with a 12/12-h light-dark cycle. Blood samples were taken 16 h after compound administration via the tail vein and measured on a Konelab 300 (Labsystem) clinical chemistry analyzer. Rat pancreatic islets were prepared by collagenase digestion and density gradient purification. The enzyme collagenase type XI (Sigma Chemical, St. Louis, Mo.) was used for digestion of the pancreas. After an overnight fast, animals were deeply anesthetized and killed. Then, the pancreatic duct was cannulated, and 20 ml of the digestion solution at 37° C. (collagenase 30 mg/ml dissolved in 20 ml Hanks' balanced salt solution [HBSS]) (Sigma Chemical, St. Louis, Mo.) was slowly injected to distend the tissue. […]

[3] = system: pancreatic sections; assay: Apoptosis by TUNEL staining on pancreatic sections; settings: 8 weeks-old ZDF rats, 10 mg/kg for 4 weeks, vehicle 4.55±1.29%, p<0.05
Description: Islet cell apoptosis was determined by transferase-mediated dUTP nick-end labeling (TUNEL) staining. Cell death was identified by 3′ in situ end labeling of fragmented DNA with biotinylated deoxyuridine-triphosphate. Each pancreatic piece was cut throughout its length into 5 μm thick sections, which were collected on gelatin-coated slides. Four sections at regular intervals were picked in both head and tail pieces. After digestion with Proteinase K (2 μg/ml; Sigma), sections were consecutively washed in TdT buffer (0.5 mol/l cacodylate [pH 6.8], 1 mmol/l cobalt chloride, 0.15 mol/l NaCl) and then incubated at 37° C. with TdT (25U; Boehringer-Mannheim, Mannheim, Germany) and biotinylated dUTP (1 nmol/μl). After washing in TB buffer (300 mmol/l NaCl, 30 mmol/l sodium citrate) to terminate the reaction, incorporation of biotinylated dUTP was detected by a modification of the avidin-biotin complex method. Horseradish peroxidise-conjugated streptavidin-biotin complex was applied (Vector Laboratories). The sections were then developed using DAB as chromogen and lightly counterstained with hematoxylin and mounted in dePex (BDH Laboratory, Poole, England).
Apoptosis have also been estimated using the TUNEL staining method on pancreatic sections of 5 animals of 8 weeks-old ZDF rats treated with GW3965 at 10 mg/kg for 4 weeks.

`O=C(O)Cc1cccc(OCCCN(Cc2cccc(C(F)(F)F)c2Cl)CC(c2ccccc2)c2ccccc2)c1` [GW3965] was tested, and the “increase of insulin secretion vs vehicle-treated ZDF rat islets” value ([1]; 3.3 mmol/l glucose) was 133.8%, the “increase of insulin secretion vs vehicle-treated ZDF rat islets” value ([1]; 16.7 mmol/l glucose) was 74.5% and the “number of harvested pancreatic islets” value [2] was 80±16 islets/rat. The “% of apoptosis by TUNEL staining” value [3] was 1.41±0.96%.
